# In patent publication US11571418B2, “Platinum compounds that inhibit constitutive STAT3 signaling and induce cell cycle arrest and apoptosis of malignant cells” (H. LEE MOFFITT CANCER CENTER AND RESEARCH INSTITUTE, INC., priority 2011, dated 2023):
# Columns and labels:
# NFκB-Luc = experiment: NFκB promoter-driven luciferase reporter assay; format: cell-based; conditions: transient transfection in mouse fibroblasts
# Protocol: FIGS. 3A-3D. Inhibition of Stat3-mediated gene expression by PLATINUM-401. (FIG. 3A) and (FIG. 3B) v-Src-transformed mouse fibroblasts that stably express Stat3-dependent (NIH3T3/v-Src/pLucTKS3) and Stat3-independent (NIH3T3/v-Src/pRLSRE) luciferase reporters or β-galactosidase (β-gal), as well as normal mouse fibroblast (NIH3T3) transiently transfected with pLucTKS3, pGL2-VEGF-Luc, NFkB-Luc or pLucSRE together with or without v-Src were treated with or without PLATINUM-401 for 48 h. Cytosolic extracts were then prepared from cells for luciferase and […] activities measurements. […]
# Cell proliferation and TUNEL assays—Proliferating cells were first treated with or without PLATINUM-401 for up to 48 h. A portion of cells were harvested for BrdU incorporation following the manufacturer's (BD Biosciences Pharmingen, San Diego, Calif.) instructions and analyzed by flow cytometry. Harvested cells were also analyzed for apoptosis via detection of TdT-mediated dUTP nick-end labeling (TUNEL) assay using Apoptosis Detection Systems Fluorescein according to the manufacturer's (Roche, Indianapolis, Ind.) instructions. […]
# To further investigate the activities of PLATINUM-401, the inventors treated malignant cells and measured effects on Stat3 signaling. […]
# MDA-MB-453 = experiment: Ki67 proliferation index by immunohistochemistry; format: cell-based, human; conditions: no persistent Stat3 activity
# Protocol: FIGS. 5A and 5B. Evaluation for effects of PLATINUM-401 on cellular constitutive Stat3 activation and cell proliferation. Normal or malignant cells were treated with or without PLATINUM-401 and nuclear extracts were prepared for Stat3 DNA-binding activity assay with hSIE probe, or cells were processed for nuclear Ki67 immunohistochemistry. (FIG. 5A) EMSA analysis of Stat3 DNA-binding activity; (FIG. 5B) Graphical representations of quantified nuclear staining of Ki-67 proliferation index. Stat3:Stat3-DNA complexes in gels are labeled. The Ki-67 proliferation indexes were calculated as the percent positive tumor cells relative to the total number of cells. […]
# Immunohistochemistry—The indirect peroxidase-antiperoxidase test was performed on cytospins prepared from cell lines (control and treated). […] The presence of Ki-67 nuclear staining was calculated as percent positive tumor cells in relation to the total number of cells.
# The inventors further examined the biological effects of PLATINUM-401 and determined whether any changes might correlate with the inhibition of constitutively-active Stat3. […]
# Changes in cell proliferation induced by treatment with PLATINUM-401 were assayed in terms of Ki67 proliferation index by immunohistochemistry. The presence of Ki-67 nuclear staining was calculated as the percent positive tumor cells in relation to the total number of cells.
structure (smiles),measurement,setting,value
CC(O)CN1CCN(CC(C)O)CC1 (centres unmarked) [PLATINUM-401],induction of NFκB promoter-driven luciferase reporter activity,NFκB-Luc,no inhibitory effects
same,proliferation (Ki67 index),MDA-MB-453,lack of effect
